{"source": "patent US20060165840A1", "about": "“Fish feed” (Norsk Hydro ASA, priority 2002, published 2006)", "test": "Oxidative stability of salmon oil, induction period in weight increase experiment", "conditions": "salmon oil from fresh raw materials, antioxidant added to oil, versus control oil without additions", "note": "Entries after “also recorded” stand apart in the source; their conditions may differ.", "procedure": "The oil stability was measured as the induction period (in days) in weight increase experiment. Oil A is salmon oil with 200 ppm d-α-tocopherol. Oil E is the control without additions.\nTo a sample of fresh fish oil prepared by gentle processing of fresh salmon filleting by-products (viscera, heads, framebones), we added 200 ppm vitamin E consisting of 89-99% d-α-tocopherol and 1-11% (β+γ+δ)-tocopherols (according to product specification), and a mixture of other/synergistic.\nTo another sample of the oil, we added 200 ppm vitamin E consisting of 14% d-α-tocopherol, 1% d-β-tocopherol, 62% d-γ-tocopherol and 23% d-δ-tocopherol, and a mixture of other/synergistic antioxidants similar to what was given to the first sample.\nThe oxidative stability of the three oils were tested by subjecting 3.0 g samples in 6.0 cm glass petri dishes to a temperature of 35° C. while exposed to air. The oxygen uptake caused by oxidation was recorded as a rapid weight increase of the samples when their antioxidative resistance was broken down, after an initial induction time (IP).", "data": [{"smiles": "Cc1c(C)c2c(c(C)c1O)CC[C@@](C)(CCC[C@H](C)CCC[C@H](C)CCCC(C)C)O2", "note": "[d-α-tocopherol]", "values": [{"measurement": "oil stability measured as induction period", "result": "weakly prooxidant effects; also recorded: did not increase stability, but gave instead a small prooxidant effect"}]}]}
